According to PubChem BioAssay AID1963863 (Molecular Pharmacology Branch, DTP, NCI, 2024):

System: 931267-113-T-J1-PDC KRAS spheroid with HUVEC/MSC, viability
Test: Anticancer human tumor 931267-113-T-J1-PDC patient-derived colon adenocarcinoma cell line growth inhibition [KRAS2]
Details: for IC50: curve of first compound; for viability, T/C: stronger effect = lower value
Outline: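 KRAS-mutant tumor cells were grown as spheroids with HUVEC endothelial cells and human MSCs as stroma. Targeted agents were tested alone and with KRAS pathway inhibitors. Doses started at or near clinical Cmax, or 10 microM, descending half-log.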

[1] = second compound 0.1 µM, first compound 0.01 µM
[2] = second compound 0.1 µM, first compound 0.0316 µM
[3] = second compound 0.1 µM, first compound 0.1 µM
[4] = second compound 0.1 µM, first compound 0.316 µM
[5] = second compound 0.1 µM, first compound 1 µM
[6] = second compound 0.1 µM, first compound 3.16 µM
[7] = second compound 0.316 µM, first compound 0.01 µM
[8] = second compound 0.316 µM, first compound 0.0316 µM
[9] = second compound 0.316 µM, first compound 0.1 µM
[10] = second compound 0.316 µM, first compound 0.316 µM
[11] = second compound 0.316 µM, first compound 1 µM
[12] = second compound 0.316 µM, first compound 3.16 µM
[13] = second compound 1 µM, first compound 0.01 µM
[14] = second compound 1 µM, first compound 0.0316 µM
[15] = second compound 1 µM, first compound 0.1 µM
[16] = second compound 1 µM, first compound 0.316 µM
[17] = second compound 1 µM, first compound 1 µM
[18] = second compound 1 µM, first compound 3.16 µM
[19] = second compound 3.16 µM, first compound 0.01 µM
[20] = second compound 3.16 µM, first compound 0.0316 µM
[21] = second compound 3.16 µM, first compound 0.1 µM
[22] = second compound 3.16 µM, first compound 0.316 µM
[23] = second compound 3.16 µM, first compound 1 µM
[24] = second compound 3.16 µM, first compound 3.16 µM
[25] = second compound 10 µM, first compound 0.01 µM
[26] = second compound 10 µM, first compound 0.0316 µM
[27] = second compound 10 µM, first compound 0.1 µM
[28] = second compound 10 µM, first compound 0.316 µM
[29] = second compound 10 µM, first compound 1 µM
[30] = second compound 10 µM, first compound 3.16 µM
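Further: compound exposure lasted 7 days before the readout.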
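Wherever viability, T/C is given: 100% = DMSO vehicle control viability.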

Compound `CC1COCCN1c1cc(-c2ccnn2C)c2ccnc(-c3ccn[nH]3)c2n1` (stereo not given) + CC1OCC2(CCN(c3cnc(Sc4ccnc(N)c4Cl)c(N)n3)CC2)C1N has an IC50 (second compound 0.1 µM) of 0.0424 µM, an IC50 (second compound 0.316 µM) of 0.0453 µM and an IC50 (second compound 1 µM) of 0.0443 µM. The IC50 (second compound 3.16 µM) was 0.0332 µM, the IC50 (second compound 10 µM) was 0.0599 µM and the viability, T/C [1] was 92.3%. The viability, T/C [2] was 57.3%, the viability, T/C [3] was 28.9% and the viability, T/C [4] was 16.6%. It also gave a viability, T/C [5] of 16.9%, a viability, T/C [6] of 19.5% and a viability, T/C [7] of 81.2%. The viability, T/C [8] was 63.4%, the viability, T/C [9] was 20.6% and the viability, T/C [10] was 15.6%. For the same compound, the viability, T/C [11] was 19%, the viability, T/C [12] was 18.6% and the viability, T/C [13] was 91.1%. The viability, T/C [14] was 58.5%, the viability, T/C [15] was 29.6% and the viability, T/C [16] was 18.1%. For the same compound, the viability, T/C [17] was 18.5%, the viability, T/C [18] was 13.6% and the viability, T/C [19] was 80.6%. It also gave a viability, T/C [20] of 50.4%, a viability, T/C [21] of 29.3% and a viability, T/C [22] of 16.1%. For the same compound, the viability, T/C [23] was 15.4%, the viability, T/C [24] was 18.4% and the viability, T/C [25] was 86.9%. It also gave a viability, T/C [26] of 80.5%, a viability, T/C [27] of 25.6% and a viability, T/C [28] of 14.4%. The viability, T/C [29] was 13.9% and the viability, T/C [30] was 15.6%.

`Cn1nccc1Nc1nccc(-c2cc3c(s2)C(C)(C)N(CCN2CCOCC2)C3=O)n1` + CC1OCC2(CCN(c3cnc(Sc4ccnc(N)c4Cl)c(N)n3)CC2)C1N showed an IC50 (second compound 0.1 µM) of 0.362 µM, an IC50 (second compound 0.316 µM) of 0.317 µM and an IC50 (second compound 1 µM) of 0.203 µM. For the same compound, the IC50 (second compound 3.16 µM) was 0.218 µM, the IC50 (second compound 10 µM) was 0.275 µM and the viability, T/C [2] was 79.4%. For the same compound, the viability, T/C [3] was 86.3%, the viability, T/C [4] was 48.3% and the viability, T/C [5] was 25.2%. The viability, T/C [6] was 7.4%, the viability, T/C (second compound 0.1 µM, first compound 10 µM) was 2.95% and the viability, T/C [8] was 70.6%. It also gave a viability, T/C [9] of 76.3%, a viability, T/C [10] of 46% and a viability, T/C [11] of 22.8%. For the same compound, the viability, T/C [12] was 4.01%, the viability, T/C (second compound 0.316 µM, first compound 10 µM) was 2.65% and the viability, T/C [14] was 72.8%. The viability, T/C [15] was 55.5%, the viability, T/C [16] was 47.5% and the viability, T/C [17] was 18.1%. The viability, T/C [18] was 4.05%, the viability, T/C (second compound 1 µM, first compound 10 µM) was 2.39% and the viability, T/C [20] was 76.4%. It also gave a viability, T/C [21] of 60.6%, a viability, T/C [22] of 45.8% and a viability, T/C [23] of 8.81%. It also gave a viability, T/C [24] of 4.98%, a viability, T/C (second compound 3.16 µM, first compound 10 µM) of 2.71% and a viability, T/C [26] of 72.4%. For the same compound, the viability, T/C [27] was 71.6%, the viability, T/C [28] was 47% and the viability, T/C [29] was 3.56%. For the same compound, the viability, T/C [30] was 2.05% and the viability, T/C (second compound 10 µM, first compound 10 µM) was 2.15%.

`CC(=O)OC12COC1CC(O)C1(C)C(=O)C(O)C3=C(C)C(OC(=O)C(O)C(NC(=O)OC(C)(C)C)c4ccccc4)CC(O)(C(OC(=O)c4ccccc4)C21)C3(C)C` (stereo not given) + CNCc1ccccc1-c1csc(C(C)Nc2nc(C)nc3cc(OC)c(OC)cc23)c1 was tested, and the IC50 (second compound 0.1 µM) was > 3.16 µM, the IC50 (second compound 0.316 µM) was > 3.16 µM and the IC50 (second compound 1 µM) was > 3.16 µM. The IC50 (second compound 3.16 µM) was < 0.01 µM, the IC50 (second compound 10 µM) was < 0.01 µM and the viability, T/C [1] was 88.2%. For the same compound, the viability, T/C [2] was 99.3%, the viability, T/C [3] was 109% and the viability, T/C [4] was 98.9%. For the same compound, the viability, T/C [5] was 82%, the viability, T/C [6] was 87.8% and the viability, T/C [7] was 109%. It also gave a viability, T/C [8] of 110%, a viability, T/C [9] of 89.7% and a viability, T/C [10] of 96.4%. The viability, T/C [11] was 101%, the viability, T/C [12] was 113% and the viability, T/C [13] was 106%. For the same compound, the viability, T/C [14] was 105%, the viability, T/C [15] was 91.3% and the viability, T/C [16] was 111%. It also gave a viability, T/C [17] of 89.7%, a viability, T/C [18] of 77.4% and a viability, T/C [19] of 0.73%. For the same compound, the viability, T/C [20] was 102%, the viability, T/C [21] was 0.55% and the viability, T/C [22] was 0.5%. For the same compound, the viability, T/C [23] was 0.41%, the viability, T/C [24] was 105% and the viability, T/C [25] was 0.33%. It also gave a viability, T/C [26] of 0.34%, a viability, T/C [27] of 0.31% and a viability, T/C [28] of 0.36%. The viability, T/C [29] was 0.18% and the viability, T/C [30] was 0.93%.

In the case of `CN(C)C/C=C/C(=O)Nc1cc2c(Nc3ccc(F)c(Cl)c3)ncnc2cc1O[C@H]1CCOC1` + CNCc1ccccc1-c1csc(C(C)Nc2nc(C)nc3cc(OC)c(OC)cc23)c1, the IC50 (second compound 0.1 µM) is reported as > 0.1 µM, the IC50 (second compound 0.316 µM) is reported as > 0.1 µM and the IC50 (second compound 1 µM) is reported as 0.000489 µM. For the same compound, the IC50 (second compound 3.16 µM) was 0.00202 µM, the IC50 (second compound 10 µM) was < 0.000316 µM and the viability, T/C (second compound 0.1 µM, first compound 0.000316 µM) was 88%. For the same compound, the viability, T/C (second compound 0.1 µM, first compound 0.001 µM) was 80.3%, the viability, T/C (second compound 0.1 µM, first compound 0.00316 µM) was 90.3% and the viability, T/C [1] was 97.7%. The viability, T/C [2] was 78%, the viability, T/C [3] was 88% and the viability, T/C (second compound 0.316 µM, first compound 0.000316 µM) was 114%. The viability, T/C (second compound 0.316 µM, first compound 0.001 µM) was 104%, the viability, T/C (second compound 0.316 µM, first compound 0.00316 µM) was 106% and the viability, T/C [7] was 76.7%. For the same compound, the viability, T/C [8] was 78.4%, the viability, T/C [9] was 79.8% and the viability, T/C (second compound 1 µM, first compound 0.000316 µM) was 69.9%. For the same compound, the viability, T/C (second compound 1 µM, first compound 0.001 µM) was 12.7%, the viability, T/C (second compound 1 µM, first compound 0.00316 µM) was 16.5% and the viability, T/C [13] was 21.8%. For the same compound, the viability, T/C [14] was 33.7%, the viability, T/C [15] was 1.43% and the viability, T/C (second compound 3.16 µM, first compound 0.000316 µM) was 94.4%. The viability, T/C (second compound 3.16 µM, first compound 0.001 µM) was 108%, the viability, T/C (second compound 3.16 µM, first compound 0.00316 µM) was 0.36% and the viability, T/C [19] was 0.29%. It also gave a viability, T/C [20] of 68.5%, a viability, T/C [21] of 0.32% and a viability, T/C (second compound 10 µM, first compound 0.000316 µM) of 0.23%. The viability, T/C (second compound 10 µM, first compound 0.001 µM) was 0.22%, the viability, T/C (second compound 10 µM, first compound 0.00316 µM) was 0.24% and the viability, T/C [25] was 0.45%. The viability, T/C [26] was 0.17% and the viability, T/C [27] was 0.22%.
